The values that follow come from ChEMBL document CHEMBL4130375, “Design, synthesis and biological evaluation of 4-amidobenzimidazole acridine derivatives as dual PARP and Topo inhibitors for cancer therapy” (Eur J Med Chem, 2017).

Assay [1] concerns the target Poly [ADP-ribose] polymerase 1 (Homo sapiens, UniProt P09874). The assay can be described thus: Inhibition of PARP1 (unknown origin) assessed as reduction in biotinylated poly(ADP-ribose) incorporation on to histone protein by ELISA based colorimetric assay. (An ELISA detects its analyte on a solid surface through an enzyme-linked reagent.)
The subject of assay [2] is MCF7. The assay is described as follows: cells. To be noted: Homo sapiens, MCF7, 72 h.
For assay [3], the target named is DNA topoisomerase 2-alpha (Homo sapiens) (UniProt P11388). The assay can be described thus: Inhibition of human topoisomerase-2 at 100 uM using supercoiled pBR322 DNA as substrate after 10 to 15 mins by ethidium bromide staining based electrophoresis method.
Chain of DNA topoisomerase 2-alpha (Homo sapiens) (P11388 whole entry): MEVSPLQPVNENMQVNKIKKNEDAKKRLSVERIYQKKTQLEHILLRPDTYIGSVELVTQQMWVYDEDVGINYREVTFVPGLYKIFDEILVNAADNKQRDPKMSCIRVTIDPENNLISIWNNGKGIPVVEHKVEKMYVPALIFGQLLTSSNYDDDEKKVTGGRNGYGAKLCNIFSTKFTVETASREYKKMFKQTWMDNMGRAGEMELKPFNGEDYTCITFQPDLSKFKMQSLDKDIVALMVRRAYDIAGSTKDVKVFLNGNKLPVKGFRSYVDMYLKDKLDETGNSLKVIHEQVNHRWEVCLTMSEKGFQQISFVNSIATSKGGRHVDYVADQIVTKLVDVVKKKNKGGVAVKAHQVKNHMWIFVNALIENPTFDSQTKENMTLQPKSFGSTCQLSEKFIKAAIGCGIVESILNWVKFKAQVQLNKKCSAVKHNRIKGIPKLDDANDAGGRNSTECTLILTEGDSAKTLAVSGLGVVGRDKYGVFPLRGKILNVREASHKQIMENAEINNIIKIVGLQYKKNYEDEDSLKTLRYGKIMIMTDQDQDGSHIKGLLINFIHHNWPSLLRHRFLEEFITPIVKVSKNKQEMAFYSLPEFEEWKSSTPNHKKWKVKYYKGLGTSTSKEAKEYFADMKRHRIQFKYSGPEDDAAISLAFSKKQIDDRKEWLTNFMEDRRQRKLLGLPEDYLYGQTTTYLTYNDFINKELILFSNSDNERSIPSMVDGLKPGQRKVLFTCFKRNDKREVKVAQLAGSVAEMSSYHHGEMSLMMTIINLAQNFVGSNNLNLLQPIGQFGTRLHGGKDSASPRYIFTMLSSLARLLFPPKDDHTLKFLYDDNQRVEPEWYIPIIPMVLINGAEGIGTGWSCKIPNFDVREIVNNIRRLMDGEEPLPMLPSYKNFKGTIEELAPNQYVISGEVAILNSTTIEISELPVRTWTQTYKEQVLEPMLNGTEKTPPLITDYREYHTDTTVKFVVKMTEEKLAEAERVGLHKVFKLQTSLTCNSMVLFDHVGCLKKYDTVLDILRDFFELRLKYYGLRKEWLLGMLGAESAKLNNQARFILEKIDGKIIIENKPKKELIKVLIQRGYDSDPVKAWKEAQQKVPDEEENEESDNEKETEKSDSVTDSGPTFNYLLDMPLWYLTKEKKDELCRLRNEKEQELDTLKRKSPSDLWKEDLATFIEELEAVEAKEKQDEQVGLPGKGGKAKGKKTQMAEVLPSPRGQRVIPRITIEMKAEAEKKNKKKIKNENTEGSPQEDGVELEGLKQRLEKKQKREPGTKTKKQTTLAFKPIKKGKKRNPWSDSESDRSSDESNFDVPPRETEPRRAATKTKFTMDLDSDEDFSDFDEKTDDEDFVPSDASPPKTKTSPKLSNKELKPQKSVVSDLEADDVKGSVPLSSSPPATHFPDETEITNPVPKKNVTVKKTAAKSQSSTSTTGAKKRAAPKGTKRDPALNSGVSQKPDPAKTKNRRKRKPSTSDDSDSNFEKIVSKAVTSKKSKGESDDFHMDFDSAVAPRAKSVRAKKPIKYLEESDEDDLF
The subject of assay [4] is HCC1937. The assay is described as follows: Antiproliferative activity against human HCC1937 cells harboring BRCA1 mutant after 72 hrs by MTT assay. Format: functional, cell-based. To be noted: HCC1937, 72 h. For orientation: Tetrazolium dyes change colour on reduction, which living cells bring about.
For assay [5], the system named is HCT-116. The assay is described as follows: Antiproliferative activity against human HCT116 cells expressing topoisomerase-1 after 72 hrs by MTT assay. Format: functional, cell-based. To be noted: HCT-116, 72 h.

In general, IC50 refers to the concentration that inhibits the measured activity by half.

Activity calls are given as the source filed them. The rule behind the calls is not given here.

Chain of Poly [ADP-ribose] polymerase 1 (P09874 whole entry): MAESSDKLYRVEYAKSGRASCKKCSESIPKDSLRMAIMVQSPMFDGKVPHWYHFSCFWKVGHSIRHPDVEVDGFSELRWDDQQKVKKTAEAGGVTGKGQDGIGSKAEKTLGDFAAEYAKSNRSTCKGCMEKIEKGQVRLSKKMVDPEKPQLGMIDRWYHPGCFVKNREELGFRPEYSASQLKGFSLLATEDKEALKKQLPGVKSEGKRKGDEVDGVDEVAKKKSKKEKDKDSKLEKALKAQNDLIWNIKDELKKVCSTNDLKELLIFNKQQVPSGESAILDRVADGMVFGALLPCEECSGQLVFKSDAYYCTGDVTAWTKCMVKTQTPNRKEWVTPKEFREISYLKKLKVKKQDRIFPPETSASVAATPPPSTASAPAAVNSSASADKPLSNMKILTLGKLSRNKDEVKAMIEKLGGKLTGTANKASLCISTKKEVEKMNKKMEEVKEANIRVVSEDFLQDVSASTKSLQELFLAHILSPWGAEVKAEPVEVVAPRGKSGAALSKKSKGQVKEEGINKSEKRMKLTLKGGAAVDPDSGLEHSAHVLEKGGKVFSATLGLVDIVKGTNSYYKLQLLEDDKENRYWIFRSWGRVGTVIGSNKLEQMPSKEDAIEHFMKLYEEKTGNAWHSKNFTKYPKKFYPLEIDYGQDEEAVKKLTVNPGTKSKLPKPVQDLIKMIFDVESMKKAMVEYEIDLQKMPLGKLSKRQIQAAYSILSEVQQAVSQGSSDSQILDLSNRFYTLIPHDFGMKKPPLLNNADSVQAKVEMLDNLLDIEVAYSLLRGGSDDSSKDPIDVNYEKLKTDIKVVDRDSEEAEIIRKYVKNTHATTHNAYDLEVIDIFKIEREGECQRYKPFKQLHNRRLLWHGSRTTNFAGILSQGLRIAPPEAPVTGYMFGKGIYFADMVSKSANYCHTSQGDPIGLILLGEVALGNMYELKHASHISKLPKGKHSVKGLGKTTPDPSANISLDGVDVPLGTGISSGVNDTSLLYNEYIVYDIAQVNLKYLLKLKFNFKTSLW

Regarding `NC(=O)c1cccc2[nH]c(-c3cccc(Nc4c5ccccc5nc5ccccc45)c3)nc12`, the 50% inhibitory concentration (IC50) was found to be 1.39 µM in assay [1] and 36.1 µM in assay [2].

Take `NC(=O)c1cccc2[nH]c(-c3ccccc3N)nc12`: the concentration for half-maximal inhibition (IC50) in assay [1] and in assay [2] was over 50 µM each time.

On to `NC(=O)c1cccc2[nH]c(-c3ccccc3Nc3c4ccccc4nc4ccccc34)nc12`, for which the IC50 in assay [1] is 1.99 µM; in assay [2] it was over 50 µM. Besides, the inhibition result in assay [3] is “Active”.

`NC(=O)c1cccc2nc(-c3ccc(N)cc3)[nH]c12`: the IC50 is 0.03 µM in assay [1] and over 50 µM in assay [2].

Turning to `COc1ccc2nc3ccccc3c(Nc3cccc(-c4nc5c(C(N)=O)cccc5[nH]4)c3)c2c1`, the half-maximal inhibitory concentration (IC50) came to 1.14 µM in assay [1] and 45.3 µM in assay [2]. Further, the inhibition result in assay [3] was “Active”.

Take `c1ccc2[nH]c(-c3ccc(Nc4c5ccccc5nc5ccccc45)cc3)nc2c1`: in assay [2], the IC50 worked out at 26.1 µM.

`NC(=O)c1cccc2[nH]c(-c3cccc(N)c3)nc12`: the figures for the half-maximal inhibitory concentration (IC50) in assay [1] and in assay [2] were 0.03 µM and over 50 µM, respectively.

For the molecule `CCCCc1ccc2nc3ccccc3c(Nc3ccc(-c4nc5c(C(N)=O)cccc5[nH]4)cc3)c2c1`, the 50% inhibitory concentration (IC50) in assay [1] is 0.13 µM; in assay [2], over 50 µM. Also, in assay [3], the inhibition entry is “Active”.

With `NC(=O)c1cccc2[nH]c(-c3ccc(Nc4c5ccccc5nc5ccccc45)cc3)nc12`, the IC50 in assay [1] was found to be 0.09 µM; in assay [2] it was 12 µM. Further, the inhibition entry in assay [3] is “Active”.

On to `COc1cccc2c(Nc3cccc(-c4nc5c(C(N)=O)cccc5[nH]4)c3)c3ccccc3nc12`, for which the IC50 came out at 0.97 µM in assay [1] and 25.8 µM in assay [2]. The inhibition entry in assay [3] was “Active”.

In the case of `Cc1ccc2nc3ccccc3c(Nc3ccc(-c4nc5c(C(N)=O)cccc5[nH]4)cc3)c2c1`, the IC50 in assay [1] was found to be 0.1 µM; in assay [2] it was 39.3 µM. Further, in assay [3], the inhibition result is “Active”.

In the case of `Cc1ccc2nc3ccccc3c(Nc3cccc(-c4nc5c(C(N)=O)cccc5[nH]4)c3)c2c1`, the IC50 worked out at 0.51 µM in assay [1] and 29.6 µM in assay [2]. Besides, the inhibition result in assay [3] was “Active”.

As to `O=C(c1cc(Cc2n[nH]c(=O)c3ccccc23)ccc1F)N1CCN(C(=O)C2CC2)CC1` [OLAPARIB], the IC50 in assay [4] was 4.97 µM; in assay [5], 15.1 µM; in assay [2], 36.2 µM.

As to `COc1ccc2nc3ccccc3c(Nc3ccccc3-c3nc4c(C(N)=O)cccc4[nH]3)c2c1`, the IC50 in assay [1] came to 1.7 µM; in assay [2], 21.8 µM. For the same molecule, the inhibition result in assay [3] was “Active”.

On to `COc1ccc2nc3ccccc3c(Nc3ccc(-c4nc5c(C(N)=O)cccc5[nH]4)cc3)c2c1`, for which the IC50 worked out at 0.25 µM in assay [1] and 38.2 µM in assay [2]. Besides, the inhibition result in assay [3] is “Active”.

On to `Cc1cccc2c(Nc3ccc(-c4nc5c(C(N)=O)cccc5[nH]4)cc3)c3ccccc3nc12`, for which the half-maximal inhibitory concentration (IC50) in assay [1] came out at 0.14 µM; in assay [2] it was 39.1 µM. Besides, the inhibition entry in assay [3] is “Active”.

On to `COc1cc(NS(C)(=O)=O)ccc1Nc1c2ccccc2nc2ccccc12` [AMSACRINE], for which the IC50 amounted to 7.85 µM in assay [4], 3.89 µM in assay [5] and 8.7 µM in assay [2].

`CCCCc1ccc2nc3ccccc3c(Nc3cccc(-c4nc5c(C(N)=O)cccc5[nH]4)c3)c2c1`: the IC50 in assay [1] was 0.32 µM; in assay [2], over 50 µM. In addition, in assay [3], the inhibition result is “Active”.

Turning to `COc1cccc2c(Nc3ccc(-c4nc5c(C(N)=O)cccc5[nH]4)cc3)c3ccccc3nc12`, the IC50 was 0.19 µM in assay [1] and 13.2 µM in assay [2]. Besides, the inhibition entry in assay [3] is “Active”.
